Laboratory results from patent US9504669B2, “Spliceostatin analogs and methods for their preparation” (PFIZER INC., priority 2012, dated 2016).
Counter-ions that a name gives are not always drawn.

How the values were obtained:
Format in all cases: cell-based
[1] = test system: N87 (gastric cancer) cells; assay: In vitro cell assay (MTS cell viability), N87; settings: free compounds (natural products and synthetic analogs), cell viability 96 hours after treatment
Summary of the method: (§1)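 Cells seeded 24 h, then treated with antibody-drug conjugates or free drug, 3-fold serial dilutions at 10 concentrations in duplicate. Viability by MTS at 96 h as percent of untreated control; IC50 from four-parameter logistic fit.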

[2] = test system: BT474 (breast cancer) cells; assay: In vitro cell assay (MTS cell viability), BT474; settings: free compounds (natural products and synthetic analogs), cell viability 96 hours after treatment
Summary of the method: as §1

[3] = test system: MDA-MB-468 cells (target non-expressing); assay: In vitro cell assay (MTS cell viability), MDA-MB-468; settings: Homo sapiens, MDA-MB-468, 96 h, read-out: MDA-MB-468 IC50 (nM)
Protocol: Target expressing (BT474 (breast cancer), N87 (gastric cancer), HCC1954 (breast cancer), MDA-MB-361-DYT2 (breast cancer)) or non-expressing (MDA-MB-468) cells were seeded in 96-well cell culture plates for 24 hours before treatment. Cells were treated with 3-fold serially diluted antibody-drug conjugates or free compounds (i.e., no antibody conjugated to the drug) in duplicate at 10 concentrations. Cell viability was determined by CellTiter 96® AQueous One Solution Cell Proliferation MTS Assay (Promega, Madison Wis.) 96 hours after treatment. Relative cell viability was determined as percentage of untreated control. IC50 values were calculated using a four parameter logistic model #203 with XLfit v4.2 (IDBS, Guildford, Surry, UK). The potency ranged upward from 0.0002 nm. Similar procedures and techniques were employed.

[4] = test system: MDA-MB-361-DYT2 (breast cancer) cells; assay: In vitro cell assay (MTS cell viability), MDA-MB-361-DYT2; settings: free compounds (natural products and synthetic analogs), cell viability 96 hours after treatment
Summary of the method: as §1

## CCCNC(=O)C[C@@H]1C[C@@]2(CO2)C[C@@H](/C=C/C(C)=C/C[C@@H]2O[C@H](C)[C@H](NC(=O)/C=C\[C@H](C)OC(C)=O)C[C@@H]2C)O1 [#B64, (2S,3Z)-5-({(2R,3R,5S,6S)-2,5-dimethyl-6-[(2E,4E)-3-methyl-5-{(3S,5S,7S)-7-[2-oxo-2-(propylamino)ethyl]-1,6-dioxaspiro[2.5]oct-5-yl}penta-2,4-dien-1-yl]tetrahydro-2H-pyran-3-yl}amino)-5-oxopent-3-en-2-yl acetate]
[1]; 96 h
  IC50: 24.8 nM
[2]; Homo sapiens, BT-474
  IC50: 5.26 nM
[3]
  IC50: 1.38 nM

## CC(=O)O[C@@H](C)/C=C\C(=O)N[C@@H]1C[C@H](C)[C@H](C/C=C(C)/C=C/[C@H]2O[C@H](CC(=O)NCCO)C[C@@]3(CO3)[C@@H]2O)O[C@@H]1C [#B8, (2S,3Z)-5-{[(2R,3R,5S,6S)-6-{(2E,4E)-5-[(3R,4R,5R,7S)-4-hydroxy-7-{2-[(2-hydroxyethyl)amino]-2-oxoethyl}-1,6-dioxaspiro[2.5]oct-5-yl]-3-methylpenta-2,4-dien-1-yl}-2,5-dimethyltetrahydro-2H-pyran-3-yl]amino}-5-oxopent-3-en-2-yl acetate]
[1]; 96 h
  IC50: 10.7 nM
[2]; Homo sapiens, BT-474
  IC50: 14.1 nM
[4]; 96 h
  IC50: 25.5 nM

## CC(=O)O[C@@H](C)/C=C\C(=O)N[C@@H]1C[C@H](C)[C@H](C/C=C(C)/C=C/[C@@H]2C[C@]3(CO3)C[C@@H](CN)O2)O[C@@H]1C [#B140, (2S,3Z)-5-{[(2R,3R,5S,6S)-6-{(2E,4E)-5-[(3R,5S,7S)-7-(aminomethyl)-1,6-dioxaspiro[2.5]oct-5-yl]-3-methylpenta-2,4-dien-1-yl}-2,5-dimethyltetrahydro-2H-pyran-3-yl]amino}-5-oxopent-3-en-2-yl acetate, acetate salt]
[1]; 96 h
  IC50: 1.01 nM
[2]; Homo sapiens, BT-474
  IC50: 0.517 nM
[4]; 96 h
  IC50: 0.632 nM

## CC(/C=C/[C@@H]1C[C@]2(CO2)C[C@@H](CN)O1)=C\C[C@@H]1O[C@H](C)[C@H](NC(=O)/C=C\[C@H](C)O)C[C@@H]1C [#B139, (2Z,4S)—N-[(2R,3R,5S,6S)-6-{(2E,4E)-5-[(3R,5S,7S)-7-(aminomethyl)-1,6-dioxaspiro[2.5]oct-5-yl]-3-methylpenta-2,4-dien-1-yl}-2,5-dimethyltetrahydro-2H-pyran-3-yl]-4-hydroxypent-2-enamide, acetate salt]
[1]; 96 h
  IC50: 6.51 nM
[2]; Homo sapiens, BT-474
  IC50: 5.49 nM
[4]; 96 h
  IC50: 13.4 nM

## CC(=O)O[C@@H](C)/C=C\C(=O)N[C@@H]1C[C@H](C)[C@H](C/C=C(C)/C=C/[C@@H]2C[C@]3(CO3)C[C@@H](CC(=O)NCCS(C)(=O)=O)O2)O[C@@H]1C [#B99, (2S,3Z)-5-{[(2R,3R,5S,6S)-2,5-dimethyl-6-{(2E,4E)-3-methyl-5-[(3S,5S,7S)-7-(2-{[2-(methylsulfonyl)ethyl]amino}-2-oxoethyl)-1,6-dioxaspiro[2.5]oct-5-yl]penta-2,4-dien-1-yl}tetraydro-2H-pyran-3-yl]amino}-5-oxopent-3-en-2-yl acetate]
[1]
  IC50: 3.28 nM
[2]
  IC50: 7.87 nM
[4]
  IC50: 21.5 nM

## CC(=O)/C=C\C(=O)N[C@@H]1C[C@H](C)[C@H](C/C=C(C)/C=C/[C@@H]2C[C@]3(CO3)C[C@@H](CC(N)=O)O2)O[C@@H]1C [#B129, (2Z)—N-[(2R,3R,5S,6S)-6-{(2E,4E)-5-[(3S,5S,7S)-7-(2-amino-2-oxoethyl)-1,6-dioxaspiro[2.5]oct-5-yl]-3-methylpenta-2,4-dien-1-yl}-2,5-dimethyltetrahydro-2H-pyran-3-yl]-4-oxopent-2-enamide]
[1]; 96 h
  IC50: > 100 nM
[2]; Homo sapiens, BT-474
  IC50: > 100 nM
[4]; 96 h
  IC50: > 100 nM

## CC(=O)O[C@@H](C)/C=C\C(=O)N[C@@H]1C[C@H](C)[C@H](C/C=C(C)/C=C/[C@@H]2C[C@]3(CO3)C[C@@H](CC(=O)NCCS(C)(=O)=O)O2)O[C@@H]1C [#B104, (2S,3Z)-5-{[(2R,3R,5S,6S)-2,5-dimethyl-6-{(2E,4E)-3-methyl-5-[(3S,5S,7S)-7-(2-{[2-(methylsulfonyl)ethyl]amino}-2-oxoethyl)-1,6-dioxaspiro[2.5]oct-5-yl]penta-2,4-dien-1-yl}tetrahydro-2H-pyran-3-yl]amino}-5-oxopent-3-en-2-yl acetate]
[1]; 96 h
  IC50: 1.41 nM
[2]; Homo sapiens, BT-474
  IC50: 4.02 nM
[4]; 96 h
  IC50: 9.13 nM

## CC(=O)O[C@@H](C)/C=C\C(=O)N[C@@H]1C[C@H](C)[C@H](C/C=C(C)/C=C/[C@@H]2C[C@]3(CO3)C[C@@H](CC(=O)N[C@H]3CC[C@@H](N(C)C)CC3)O2)O[C@@H]1C (relative stereo) [#B90, (2S,3Z)-5-{[(2R,3R,5S,6S)-6-{(2E,4E)-5-[(3S,5S,7S)-7-(2-{[cis-4-(dimethylamino)cyclohexyl]amino}-2-oxoethyl)-1,6-dioxaspiro[2.5]oct-5-yl]-3-methylpenta-2,4-dien-1-yl}-2,5-dimethyltetrahydro-2H-pyran-3-yl]amino}-5-oxopent-3-en-2-yl acetate]
[1]
  IC50: 0.87 nM
[2]
  IC50: 1.26 nM
[4]
  IC50: 3.9 nM

## COC(=O)C[C@@H]1C[C@@]2(CO2)[C@H](O)[C@@H](/C=C/C(C)=C/C[C@@H]2O[C@H](C)[C@H](NC(=O)/C=C\[C@H](C)OC(C)=O)C[C@@H]2C)O1 [#B55, methyl [(3R,5S,7R,8R)-7-{(1E,3E)-5-[(2S,3S,5R,6R)-5-{[(2Z,4S)-4-(acetyloxy)pent-2-enoyl]amino}-3,6-dimethyltetrahydro-2H-pyran-2-yl]-3-methylpenta-1,3-dien-1-yl}-8-hydroxy-1,6-dioxaspiro[2.5]oct-5-yl]acetate]
[1]; 96 h
  IC50: 0.822 nM
[2]; Homo sapiens, BT-474
  IC50: 0.879 nM
[4]; 96 h
  IC50: 1.26 nM

## CC(=O)O[C@@H](C)/C=C\C(=O)N[C@@H]1C[C@H](C)[C@H](C/C=C(C)/C=C/[C@H]2O[C@H](CC(=O)NCc3cccc(N)c3)C[C@@]3(CO3)[C@@H]2O)O[C@@H]1C [#B89, (2S,3Z)-5-{[(2R,3R,5S,6S)-6-{(2E,4E)-5-[(3R,4R,5R,7S)-7-{2-[(3-aminobenzyl)amino]-2-oxoethyl}-4-hydroxy-1,6-dioxaspiro[2.5]oct-5-yl]-3-methylpenta-2,4-dien-1-yl}-2,5-dimethyltetrahydro-2H-pyran-3-yl]amino}-5-oxopent-3-en-2-yl acetate]
[1]; 96 h
  IC50: 1.91 nM
[2]; Homo sapiens, BT-474
  IC50: 3.56 nM
[4]; 96 h
  IC50: 7.99 nM

## CC(/C=C/[C@H]1O[C@H](CC(N)=O)C[C@@]2(CO2)[C@@H]1O)=C\C[C@@H]1O[C@H](C)[C@H](NC(=O)/C=C\[C@H](C)OC(=O)N2CCCCC2)C[C@@H]1C [#B134, (2S,3Z)-5-{[(2R,3R,5S,6S)-6-{(2E,4E)-5-[(3R,4R,5R,7S)-7-(2-amino-2-oxoethyl)-4-hydroxy-1,6-dioxaspiro[2.5]oct-5-yl]-3-methylpenta-2,4-dien-1-yl}-2,5-dimethyltetrahydro-2H-pyran-3-yl]amino}-5-oxopent-3-en-2-yl piperidine-1-carboxylate]
[1]; 96 h
  IC50: 1.8 nM
[2]; Homo sapiens, BT-474
  IC50: 1.18 nM
[4]; 96 h
  IC50: 2.02 nM

## CC(=O)O[C@@H](C)/C=C\C(=O)N[C@@H]1C[C@H](C)[C@H](C/C=C(C)/C=C/[C@@H]2C[C@]3(CO3)C[C@@H](CC(=O)NCc3ccc(S(N)(=O)=O)cc3)O2)O[C@@H]1C [#B97, (2S,3Z)-5-{[(2R,3R,5S,6S)-2,5-dimethyl-6-{(2E,4E)-3-methyl-5-[(3S,5S,7S)-7-{2-oxo-2-[(4-sulfamoylbenzyl)amino]ethyl}-1,6-dioxaspiro[2.5]oct-5-yl]penta-2,4-dien-1-yl}tetrahydro-2H-pyran-3-yl]amino}-5-oxopent-3-en-2-yl acetate]
[1]; 96 h
  IC50: 5.09 nM
[2]; Homo sapiens, BT-474
  IC50: 8.83 nM
[4]; 96 h
  IC50: 41.6 nM

## CSCCNC(=O)C[C@@H]1C[C@@]2(CO2)C[C@@H](/C=C/C(C)=C/C[C@@H]2O[C@H](C)[C@H](NC(=O)/C=C\[C@H](C)OC(C)=O)C[C@@H]2C)O1 [#B103, (2S,3Z)-5-{[(2R,3R,5S,6S)-2,5-dimethyl-6-{(2E,4E)-3-methyl-5-[(3S,5S,7S)-7-(2-{[2-(methylsulfanyl)ethyl]amino}-2-oxoethyl)-1,6-dioxaspiro[2.5]oct-5-yl]penta-2,4-dien-1-yl}tetrahydro-2H-pyran-3-yl]amino}-5-oxopent-3-en-2-yl acetate]
[1]; 96 h
  IC50: 1.6 nM
[2]; Homo sapiens, BT-474
  IC50: 4.03 nM
[4]; 96 h
  IC50: 4.25 nM

## CC(=O)O[C@@H](C)/C=C\C(=O)N[C@@H]1C[C@H](C)[C@H](C/C=C(C)/C=C/[C@H]2O[C@H](CC(=O)NCc3ccc(N)c(C(F)(F)F)c3)C[C@@]3(CO3)[C@@H]2O)O[C@@H]1C [#B88, (2S,3Z)-5-{[(2R,3R,5S,6S)-6-{(2E,4E)-5-[(3R,4R,5R,7S)-7-(2-{[4-amino-3-(trifluoromethyl)benzyl]amino}-2-oxoethyl)-4-hydroxy-1,6-dioxaspiro[2.5]oct-5-yl]-3-methylpenta-2,4-dien-1-yl}-2,5-dimethyltetrahydro-2H-pyran-3-yl]amino}-5-oxopent-3-en-2-yl acetate]
[1]; 96 h
  IC50: 0.73 nM
[2]; Homo sapiens, BT-474
  IC50: 1.8 nM
[4]; 96 h
  IC50: 2.96 nM

## CC(=O)O[C@@H](C)/C=C\C(=O)N[C@@H]1C[C@H](C)[C@H](C/C=C(C)/C=C/[C@H]2O[C@H](CC(=O)N[C@H]3CC[C@H](N(C)C)CC3)C[C@@]3(CO3)[C@@H]2O)O[C@@H]1C (relative stereo) [#B86, (2S,3Z)-5-{[(2R,3R,5S,6S)-6-{(2E,4E)-5-[(3R,4R,5R,7S)-7-(2-{[trans-4-(dimethylamino)cyclohexyl]amino}-2-oxoethyl)-4-hydroxy-1,6-dioxaspiro[2.5]oct-5-yl]-3-methylpenta-2,4-dien-1-yl}-2,5-dimethyltetrahydro-2H-pyran-3-yl]amino}-5-oxopent-3-en-2-yl acetate]
[1]
  IC50: 14 nM
[2]
  IC50: 20.1 nM
[4]
  IC50: 73.3 nM
